# Several values for one entry are separate records, joined by “and”; a condition that tells them apart may be missing. Equal values may be shown once.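 Cultured in 96-well plates, cells were exposed to test compound for 48 hours across five concentrations. At the GI50, growth is halved. TGI is the concentration that stops growth completely.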
# What was measured:
# Experiment in all cases: inhibition of tumour cell growth, NCI panel, 48 h
# [1] = test system: SF-268 CNS
# [2] = test system: NCI-H460 lung
# [3] = test system: MDA-MB-435
# [4] = test system: OVCAR-4 ovarian
# [5] = test system: KM12 colon
# [6] = test system: NCI/ADR-RES ovarian
# [7] = test system: RXF 393 renal
# [8] = test system: NCI-H522 lung
# [9] = test system: OVCAR-5 ovarian
# [10] = test system: SW-620 colon
Compound,GI50 [1] [µM],TGI [1] [µM],GI50 [2] [µM],TGI [2] [µM],GI50 [3] [µM],TGI [3] [µM],GI50 [4],TGI [4] [µM],GI50 [5] [µM],TGI [5] [µM],GI50 [6] [µM],TGI [6] [µM],GI50 [7] [µM],TGI [7] [µM],GI50 [8] [µM],TGI [8] [µM],GI50 [9] [µM],TGI [9] [µM],GI50 [10] [µM],TGI [10] [µM]
O=S(=O)(Nc1ccc2ccccc2c1)c1ccc(-c2cnc(C3CC3)o2)cc1,3.44,24.5,0.56,10.9,0.214,0.598,3.22 µM,79.9,0.624,14.7,0.713,5.81,0.573,3.92,0.766,14.5,3.01,23.4,0.468,18.3
C1CCN2CC3CCCN4CCCC(C2C1)C34 (centres undefined),,> 100,,> 100,,> 100,> 100 µM and 24.7 µM,> 100,,> 100,,> 100,,> 100,,> 100,,> 100,,> 100
N#Cc1c(N)nc(N2CCSCC2)c(C#N)c1-c1ccc(O)cc1,18.2,56.5,13.4,29.5,19,49.6,18 µM,67.6,20.2,92.2,20.6,67.1,35.3,> 100,22,52.7,16.1,50,27.5,> 100
O=C(Nc1cccnc1)c1ccc2ccc3ccc(C(=O)Nc4cccnc4)nc3c2n1,0.225,> 100,0.0537,,0.184,> 100,0.37 µM,> 100,0.0546,> 100,> 100,> 100,0.11,0.342,0.525,> 100,,> 100,0.0781,> 100
CCN(CC)CC(C)(C)C(=O)/C=C/c1ccc(/C=C/C(=O)C(C)(C)CN(CC)CC)cc1,,2.11,,0.755,,2.16,,,,2.16,,6.59,,0.928,,0.194,,2.93,,0.523
CSc1ccc(C2=NN(C(C)=O)C(c3ccc(F)cc3)C2)cc1 (centres undefined),14.9,42.5,15.9,50.7,15,32.4,15.9 µM,37.5,12.8,36.5,16.4,32.9,18.5,34.6,14.7,34.5,18.9,43.7,17.7,40.3
CC(=O)O[C@H]1C(=O)[C@@]2(C)[C@H]([C@H](OC(=O)c3ccccc3)[C@@]3(O)C[C@H](O)C(C)=C1C3(C)C)[C@]1(OC(C)=O)CO[C@@H]1C[C@@H]2O,,> 100,,> 100,,27.5,,> 100,,> 100,,> 100,,> 100,,44.1,,> 100,,> 100
COc1cc(-c2ccc(NC(=O)NC3CC3)c(OC)c2)ccc1NC(=O)NC1CC1,8.21,> 100,1.51,15.7,9.18,> 100,> 100 µM,> 100,5.28,> 100,> 43.6,> 100,1.16,4.42,4.94,> 62.5,> 100,> 100,5.39,> 100
C/C=C(/C)C(=O)OC1C=C(CO)C(=O)C(OC(=O)C(C)(O)C(C)Cl)C1C(C)C (centres undefined),2.19,5.08,2.28,8.62,1.35,2.83,1.87 µM,3.95,1.75,3.47,2.31,13.3,1.6,3.13,0.603,2.37,0.971,2.72,1.69,4.08
COc1ccc(CNc2cnc3cc(N)cc(N)c3n2)cc1,28.9,81.8,33.8,> 100,21.7,39,64.5 µM,> 100,23.5,67.6,25.5,76.2,22.3,49.8,17.9,44.1,18.1,43.6,23.5,50.4
CC[C@]12C=CCN3CC[C@@]4(c5ccc(OC)cc5N(C)[C@H]4[C@@](O)(C(=O)OC)[C@@H]1OC(=O)CCC(=O)N[C@H](Cc1c[nH]c4ccccc14)C(=O)OC)[C@@H]32,4.88,25.9,14.8,32.8,5.42,22.5,6.5 µM,28.4,10.1,36,11.3,37.8,2.22,5.72,14.4,34.9,14.1,45,3.03,10.6
COC(=O)C(=O)C(C(=O)C(=O)Nc1ccc(C)cc1)c1nc2ccc(C(=O)c3ccccc3)cc2[nH]c1=O (centres undefined),,> 100,,> 100,,> 100,,> 100,,> 100,,> 100,,> 100,,> 100,,> 100,,> 100
CC1=NN(C(=O)c2ccncc2)C(=O)C1N=Nc1ccc2ccccc2c1 (centres undefined),,> 100,,> 100,,15.2,,> 100,,> 100,,> 100,,> 100,,> 100,,> 100,,> 100
CO[C@@H]1[C@H]2[C@@H](C)c3ccoc3C[C@@H]2[C@@]2(C)CC[C@H](OC(=O)c3ccccc3)[C@](C)(C(=O)O)[C@]2(O)[C@@H]1OC(=O)c1ccccc1,21.2,> 50,13.4,> 50,7.97,19.5,22.1 µM,> 50,8.83,33.5,11.7,35.3,12.2,39,34.9,> 50,12,31.2,9.3,20
CC(CCCC1SCC2NC(=O)NC21)C(=O)O (centres undefined),,> 100,,> 100,,> 100,,> 100,,> 100,,> 100,,> 100,,> 100,,> 100,,> 100
COc1ccc(/C=C2\CC(C)CC3C2=NN(c2ccccc2)C3c2ccc(OC)c(OC)c2)cc1OC (centres undefined),3.31,37.2,3.09,12.4,3.2,> 100,3.65 µM,> 100,,,2.71,9.51,> 100,> 100,4.83,> 100,3.16,12.1,3.96,> 100
O=C(Nc1nc(-c2ccc(Cl)cc2)nc2c1sc(=S)n2-c1ccccc1)C(F)(F)F,4.45,24.3,2.72,7.26,5.4,> 100,1.95 µM,4.19,4.89,> 100,3.58,19.3,2.36,5.01,4.72,39.8,6.23,26.6,4.34,26.3
Nc1nc(N)c(N=Nc2ccc(C(=O)O)c(O)c2)c(N)n1,,> 100,,> 100,,> 100,,35.1,,> 100,,> 100,,> 100,,> 100,,> 100,,> 100
Cc1cc(NNC(=O)c2ccccc2O)nc(Nc2nc3ccccc3o2)n1,1.13,40.8,0.422,6.77,3.02,17.8,0.79 µM,7.06,1.01,35.2,1.3,7,1.69,7.3,2.5,12.9,2.52,15.9,3.03,17.8
CC[C@@H](C)Nc1cc(C(=O)NC2CC3CCC(C2)N3c2ccc(C(=O)C3CC3)cn2)c(C)cc1C(N)=O (some centres undefined),0.357,> 100,0.0299,> 54.2,0.0391,> 39.3,1.31 µM,> 100,0.0239,0.0884,1.06,> 100,0.0516,> 100,0.0451,41.8,0.0706,> 100,0.0323,> 100
O=C(Nc1cccc(Cl)c1)c1cc(N=Nc2ccc([N+](=O)[O-])cc2Cl)ccc1O,2.22,11.4,2.74,7.92,2.34,5.96,2.67 µM,> 100,1.57,4.61,2.27,5.93,2.56,6.99,2.94,6.95,2.81,10.6,2.95,
CC(C)CCC(=O)[C@@H](C)[C@H]1[C@@H](OC2OCC(O)C(O)C2NS(C)(=O)=O)C[C@H]2[C@@H]3CC=C4C[C@@H](O)CC[C@]4(C)[C@H]3CC[C@]12C (some centres undefined),1.25,6.99,1.42,4.86,0.88,2.16,5.12 µM,28.6,2.77,11,9.82,> 40,0.178,0.783,5.05,12.5,4.89,16.8,1.54,6.02
C=C1CCC2C3(C)COC(c4ccc(Cl)cc4)OC3CCC2(C)C1/C=C/C1=CCOC1=O (centres undefined),19.9,> 100,4.42,> 100,4.19,> 100,,,9.19,> 100,4.98,> 100,12,58.2,1.11,36.7,70.2,> 100,> 100,> 100
CCOc1c(C#N)c2c(N)ncnc2n1C1OC(CO)C(O)C1O (centres undefined),3.37,65.4,2.48,> 100,3.15,34.6,3.75 µM,> 57.2,3.11,> 44.2,4.51,> 100,2.27,6.64,8.18,39.9,7.02,> 100,2.18,> 44.6
O=c1c(-c2ccc(O)cc2)coc2cc(OC3OC(CO)C(O)C(O)C3O)cc(O)c12 (centres undefined),> 10,> 100,> 10,> 100,> 100,> 100,> 100 µM,> 100,,> 100,,> 10,> 10,> 100,,> 100,> 100,> 100,,> 10
COC(=O)C1=C(C(=O)OC)C2OC1c1cc3ccccc3cc12,,34.9,,46.3,,18,,,,> 58.1,,30.7,,3.29,,2.9,,11.3,,3.96
C=C1C(=O)OC2CC3(C)CCCC(C)C3=CC12 (centres undefined),,23.1,,13.7,,14.1,,20.2,,25.1,,56.7,,,,3.97,,23.4,,6.13
COc1ccc2c(c1)C(=O)c1c-2n(CCCN)c(=O)c2cc(OC)c(OC)cc12,0.515,,< 0.01,> 100,1.33,2.86,,,0.169,0.627,0.405,5.4,0.399,1.88,< 0.01,1.03,1.59,3.01,0.0554,1.98

# From PubChem BioAssay (NCI)
